Experimental data as given in ChEMBL document CHEMBL5316268 (J Med Chem, 2023).
Values after ≈ are worked out from the molar mass of the structure shown. Active and inactive are the calls of the source. No cut-off for these calls is given here.

How the values were obtained:
[1] = AUC (0 to 24 hrs) in CD rat at 200 mg/kg, po measured for 24 hrs by LC-MS/MS analysis; assay type: ADME, organism-based; set-up: dose 200 mg/kg, time 24 hrs, route po; settings: in vivo
5'-nucleotidase [2] = biological target: T1, 5'-nucleotidase (Homo sapiens, UniProt P21589); assay: Inhibition of CD73 in human plasma derived from TNBC cancer patient incubated for 15 mins in presence of 15N5-AMP by LC/MS analysis; assay type: cell-free
5'-nucleotidase [3] = biological target: T1, 5'-nucleotidase; assay: Competitive inhibition of soluble C-terminal 6His-tagged recombinant human CD73 (27 to 547 residues) expressed in CHO cells assessed as inhibition constant incubated for 1 hr by malachite green based spectrophotometer assay; assay type: cell-based
[4] = Oral bioavailability in CD rat at 50 mg/kg measured for 24 hrs by LC-MS/MS analysis; assay type: ADME, organism-based; settings: in vivo, po, 50 mg/kg, 24 h
Cytochrome P450 2C19 = Cytochrome P450 2C19 (Homo sapiens, UniProt P33261); assay: Inhibition of human CYP2C19 at 10 uM; assay type: ADME
5'-nucleotidase [5] = biological target: T2, 5'-nucleotidase (Mus musculus, UniProt Q61503); assay: Inhibition of C-terminal 6His-tagged recombinant mouse CD73 (29 to 549 residues) expressed in CHO cells incubated for 1 hr by malachite green assay; assay type: cell-based
T2 sequence (Q61503 whole entry): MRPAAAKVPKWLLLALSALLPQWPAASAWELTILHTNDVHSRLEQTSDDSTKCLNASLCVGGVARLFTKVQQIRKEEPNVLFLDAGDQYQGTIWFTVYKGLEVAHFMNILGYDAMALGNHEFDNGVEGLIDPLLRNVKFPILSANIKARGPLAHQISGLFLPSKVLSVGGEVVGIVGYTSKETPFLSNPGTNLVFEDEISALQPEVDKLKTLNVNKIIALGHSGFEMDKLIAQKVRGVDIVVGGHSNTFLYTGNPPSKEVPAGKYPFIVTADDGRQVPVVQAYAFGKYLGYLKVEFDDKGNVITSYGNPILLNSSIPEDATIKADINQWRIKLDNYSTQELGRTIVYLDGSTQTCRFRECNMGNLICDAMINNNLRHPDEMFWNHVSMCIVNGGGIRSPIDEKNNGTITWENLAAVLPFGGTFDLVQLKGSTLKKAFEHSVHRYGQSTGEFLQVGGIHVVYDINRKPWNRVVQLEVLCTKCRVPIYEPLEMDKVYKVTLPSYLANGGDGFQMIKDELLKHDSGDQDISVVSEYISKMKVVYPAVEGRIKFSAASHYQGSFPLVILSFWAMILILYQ

Cytochrome P450 2C9 = Cytochrome P450 2C9 (Homo sapiens, UniProt P11712); assay: Inhibition of human CYP2C9 at 10 uM; assay type: ADME
[6] = Plasma protein binding in rat at 10 uM assessed as bound fraction; assay type: ADME, cell-free; settings: read-out: PPB (converted)
[7] = AUC (0 to 24 hrs) in CD rat at 50 mg/kg, po measured for 24 hrs by LC-MS/MS analysis; assay type: ADME, organism-based; set-up: time 24 hrs, dose 50 mg/kg, route po; settings: in vivo
EG7 [8] = assay: Antitumor activity against mouse EG7 cells implanted in C57BL/6 mouse assessed as reduction in tumor volume at 100 mg/kg, po bid administered for 23 days in presence of oxaliplatin; assay type: functional, organism-based; settings: time 23.0 day
Cytochrome P450 2C8 = biological target: T3, Cytochrome P450 2C8 (Homo sapiens, UniProt P10632); assay: Inhibition of human CYP2C8 at 10 uM; assay type: ADME
T3 sequence (P10632 whole entry): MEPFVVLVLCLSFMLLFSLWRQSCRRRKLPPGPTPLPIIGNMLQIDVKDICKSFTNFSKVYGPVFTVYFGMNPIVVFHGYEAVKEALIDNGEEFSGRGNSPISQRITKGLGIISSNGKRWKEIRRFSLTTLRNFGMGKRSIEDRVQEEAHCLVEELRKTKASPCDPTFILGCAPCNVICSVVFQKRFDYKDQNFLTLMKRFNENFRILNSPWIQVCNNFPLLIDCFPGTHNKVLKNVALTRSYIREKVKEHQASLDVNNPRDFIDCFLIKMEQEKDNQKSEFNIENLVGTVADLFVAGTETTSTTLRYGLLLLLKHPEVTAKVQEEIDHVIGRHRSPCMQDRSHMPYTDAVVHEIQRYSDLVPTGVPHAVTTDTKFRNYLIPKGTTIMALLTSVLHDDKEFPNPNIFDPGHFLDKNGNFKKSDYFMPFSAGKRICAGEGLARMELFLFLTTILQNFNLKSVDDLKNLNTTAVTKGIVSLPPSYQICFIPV

EG7 [9] = assay: Antitumor activity against mouse EG7 cells implanted in C57BL/6 mouse assessed as reduction in tumor volume at 100 mg/kg, po bid administered for 21 days in presence of anti-PD-L1 antibody; assay type: functional, organism-based; settings: time 21.0 day
[10] = Drug concentration in mouse plasma at 50 mg/kg, po administered as single dose measured after 24 hrs by LC/MS analysis; assay type: ADME, organism-based
[11] = AUC (0 to 24 hrs) in CD rat at 500 mg/kg, po measured for 24 hrs by LC-MS/MS analysis; assay type: ADME, organism-based; set-up: time 24 hrs, dose 500 mg/kg, route po; settings: in vivo
[12] = Cmax in CD rat at 50 mg/kg, po measured for 24 hrs by LC-MS/MS analysis; assay type: ADME, organism-based; set-up: dose 50 mg/kg, time 24 hrs, route po; settings: in vivo
5'-nucleotidase [13] = biological target: T1, 5'-nucleotidase; assay: Inhibition of CD73 in human plasma incubated for 15 mins in presence of 15N5-AMP by LC/MS analysis; assay type: cell-free
EG7 [14] = assay: Antitumor activity against mouse EG7 cells implanted in C57BL/6 mouse assessed as reduction in tumor volume at 50 mg/kg, po bid administered for 19 days in presence of doxorubicin; assay type: functional, organism-based; settings: time 19.0 day
[15] = Cytotoxicity against human CD8-positive T cells at 100 uM incubated for 4 days by Cell Titer-Glo assay; assay type: toxicity, cell-based; settings: 96 h, time 4 day
5'-nucleotidase [16] = biological target: T1, 5'-nucleotidase; assay: Inhibition of CD73 in human plasma derived from esophageal cancer patient incubated for 15 mins in presence of 15N5-AMP by LC/MS analysis; assay type: cell-free
EG7 [17] = assay: Antiproliferative activity against mouse EG7 cells at 100 uM incubated for 3 days by Cell Titer-Glo assay; assay type: functional, cell-based; settings: time 3.0 day
[18] = Aqueous solubility of compound at pH 1 to 7; assay type: physicochemical; settings: aqueous solution
CD8-positive T cell [19] = assay: Reversal of AMP-mediated suppression of human CD8-positive T cell proliferation at 0.01 to 1000 nM measured after 4 days by flow cytometry; assay type: functional, cell-based; settings: dose 0.01-1000 nM, time 4.0 day
[20] = Tmax in CD rat at 200 mg/kg, po measured for 24 hrs by LC-MS/MS analysis; assay type: ADME, organism-based; settings: in vivo
[21] = Plasma protein binding in human assessed as unbound fraction; assay type: ADME, cell-free
[22] = Plasma protein binding in mouse at 10 uM assessed as bound fraction; assay type: ADME, cell-free; settings: read-out: PPB (converted)
CD8-positive T cell [23] = assay: Reversal of AMP-mediated suppression of human CD8-positive T cells function assessed as increase in IFN-gamma level at 0.01 to 1000 nM measured after 4 days by ELISA; assay type: functional, cell-based; settings: dose 0.01-1000 nM, time 4.0 day
5'-nucleotidase [24] = biological target: T2, 5'-nucleotidase; assay: Inhibition of CD73 in mouse plasma incubated for 5 mins in presence of 15N5-AMP by LC/MS analysis; assay type: cell-free
Cytochrome P450 2D6 = Cytochrome P450 2D6 (Homo sapiens, UniProt P10635); assay: Inhibition of human CYP2D6 at 10 uM; assay type: ADME
5'-nucleotidase [25] = biological target: T1, 5'-nucleotidase; assay: Competitive inhibition of cell surface anchored CD73 (unknown origin) expressed in human SK-MEL-28 cells assessed as inhibition constant incubated for 30 mins by malachite green assay; assay type: cell-based

T1 sequence (P21589 whole entry, the tested form may be a part): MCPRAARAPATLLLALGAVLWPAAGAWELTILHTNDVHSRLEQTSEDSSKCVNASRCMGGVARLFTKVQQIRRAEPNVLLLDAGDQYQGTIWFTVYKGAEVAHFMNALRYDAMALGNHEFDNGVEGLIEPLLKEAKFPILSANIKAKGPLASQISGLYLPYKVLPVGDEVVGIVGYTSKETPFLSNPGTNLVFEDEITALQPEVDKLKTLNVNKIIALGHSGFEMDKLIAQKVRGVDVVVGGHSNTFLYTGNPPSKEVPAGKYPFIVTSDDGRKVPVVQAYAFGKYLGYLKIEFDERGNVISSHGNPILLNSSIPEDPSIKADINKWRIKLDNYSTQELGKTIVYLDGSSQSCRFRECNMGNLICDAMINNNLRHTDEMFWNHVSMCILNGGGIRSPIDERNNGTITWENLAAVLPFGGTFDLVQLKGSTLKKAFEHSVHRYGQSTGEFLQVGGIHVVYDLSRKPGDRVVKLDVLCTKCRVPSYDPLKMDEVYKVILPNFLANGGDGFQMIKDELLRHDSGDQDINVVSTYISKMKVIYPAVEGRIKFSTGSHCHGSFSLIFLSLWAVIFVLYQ
Chain of Cytochrome P450 2C19 (P33261 whole entry, the tested form may be a part): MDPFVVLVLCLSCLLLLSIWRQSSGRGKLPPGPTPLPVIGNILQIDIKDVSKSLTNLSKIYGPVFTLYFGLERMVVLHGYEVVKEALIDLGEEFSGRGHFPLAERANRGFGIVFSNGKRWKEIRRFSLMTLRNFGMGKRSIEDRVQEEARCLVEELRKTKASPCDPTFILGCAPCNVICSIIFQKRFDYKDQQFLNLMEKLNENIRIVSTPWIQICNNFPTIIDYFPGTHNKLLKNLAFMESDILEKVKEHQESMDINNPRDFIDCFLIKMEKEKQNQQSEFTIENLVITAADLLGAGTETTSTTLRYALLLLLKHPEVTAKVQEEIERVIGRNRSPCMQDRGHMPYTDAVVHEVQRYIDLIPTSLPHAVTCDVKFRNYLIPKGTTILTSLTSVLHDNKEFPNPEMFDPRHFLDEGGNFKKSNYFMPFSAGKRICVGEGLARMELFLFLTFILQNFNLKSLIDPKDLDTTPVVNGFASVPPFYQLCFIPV
Chain of Cytochrome P450 2C9 (P11712 whole entry): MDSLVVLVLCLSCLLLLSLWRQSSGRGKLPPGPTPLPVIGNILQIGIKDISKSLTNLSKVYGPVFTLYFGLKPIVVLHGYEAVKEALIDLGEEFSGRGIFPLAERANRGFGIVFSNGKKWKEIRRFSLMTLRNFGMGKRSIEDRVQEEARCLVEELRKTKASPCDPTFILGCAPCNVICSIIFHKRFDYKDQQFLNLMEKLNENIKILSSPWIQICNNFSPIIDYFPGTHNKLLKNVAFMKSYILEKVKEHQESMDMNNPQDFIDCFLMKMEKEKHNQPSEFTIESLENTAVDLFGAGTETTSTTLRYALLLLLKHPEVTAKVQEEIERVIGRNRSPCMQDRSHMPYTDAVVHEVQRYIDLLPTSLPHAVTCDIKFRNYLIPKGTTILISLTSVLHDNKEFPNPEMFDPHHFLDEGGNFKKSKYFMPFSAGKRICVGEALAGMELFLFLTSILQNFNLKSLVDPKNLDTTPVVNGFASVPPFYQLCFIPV
Chain of Cytochrome P450 2D6 (P10635 whole entry): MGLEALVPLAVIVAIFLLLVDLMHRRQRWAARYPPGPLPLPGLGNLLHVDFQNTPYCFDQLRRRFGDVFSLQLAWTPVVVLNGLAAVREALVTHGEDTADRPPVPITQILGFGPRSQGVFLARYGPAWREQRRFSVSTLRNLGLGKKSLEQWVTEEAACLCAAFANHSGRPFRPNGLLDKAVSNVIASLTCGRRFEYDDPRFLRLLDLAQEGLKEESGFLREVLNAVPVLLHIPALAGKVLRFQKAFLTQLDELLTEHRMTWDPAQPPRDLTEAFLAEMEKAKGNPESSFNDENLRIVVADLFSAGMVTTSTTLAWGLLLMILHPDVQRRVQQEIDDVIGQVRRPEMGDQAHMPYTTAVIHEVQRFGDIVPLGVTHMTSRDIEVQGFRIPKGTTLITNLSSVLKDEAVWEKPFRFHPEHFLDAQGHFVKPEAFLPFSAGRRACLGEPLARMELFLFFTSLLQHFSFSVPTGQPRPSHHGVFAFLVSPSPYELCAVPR

- AUC(0-t) at 24 h [1]: 6.09 µg·h/mL
- IC50 (5'-nucleotidase [2]): 0.18 nM
- Ki (5'-nucleotidase [3]): 0.038 nM
- F [4]: 2.8%
- inhibition (INH) (Cytochrome P450 2C19): Not Active
- IC50 (5'-nucleotidase [5]): 1.3 nM
- inhibition (INH) (Cytochrome P450 2C9): Not Active
- fraction unbound at 10 µM [6]: 0.29
- AUC [7]: 0.58 µg·h/mL
- inhibition (INH) (Cytochrome P450 2C8): Not Active
- concentration at 24 h [10]: > 0.001 µM
- AUC(0-t) at 24 h [11]: 18.5 µg·h/mL
- Cmax [12]: 0.074 µM
- IC90 (5'-nucleotidase [13]): 3 nM
- IC50 (5'-nucleotidase [16]): 0.1 nM
- solubility [18]: 3.88 mg/mL (≈ 6.3 mM)
- Tmax [20]: 48 min
- fraction unbound [21]: 0.42
- fraction unbound at 10 µM [22]: 0.37
- IC50 (5'-nucleotidase [24]): 1.2 nM
- inhibition (INH) (Cytochrome P450 2D6): Not Active
- Ki (5'-nucleotidase [25]): 0.11 nM
Structure (SMILES): C#C[C@@]1(O)[C@@H](COC(Cc2ccc(N3CCCNC3=O)cc2)(C(=O)O)C(=O)O)O[C@@H](n2cnc3c(N)nc(Cl)nc32)[C@@H]1O
- Activity (EG7 [8]): Active
- Activity (EG7 [9]): Active
- Activity (EG7 [14]): Active
- Activity [15]: Non-Toxic
- Activity (EG7 [17]): inactive
- Activity (CD8-positive T cell [19]): Active
- Activity (CD8-positive T cell [23]): Active
